According to US8829002B2, “Substituted methyl amines, serotonin 5-HT6 receptor antagonists, methods for production and use thereof” (priority 2010, dated 2014):

Legend:
Format in all cases: in vivo
male mice of BALB/c line [1] = experiment: Porsolt's Forced Swim Test; conditions: after 4 days administration in doses of 1 mg/kg; last 5 minutes of 15 min test; FIG. 12
Method: Antidepressant action of antagonists of the general formula 1 in Porsolt's Forced Swim Test. The test apparatus represented a plastic vessel filled with water up to height of 18 cm at 20-22° C. Experiments were carried out in aged male mice of BALB/c line weighing 20-24 grams. An animal was placed in water and for 15 minutes the duration of immobile hanging in water—so named behavioural despaire which is considered to be a measure of depressively-like state, was registered. The last 5 minutes of the test were used for estimation. Automated computerized detection of motion with video system and Any-maze program were used in test.

male mice of BALB/c line [2] = experiment: Passive Avoidance of mice in the Shuttle Chamber, memory disturbed by Scopolamine; conditions: Scopolamine 0.3 mg/kg, intraperitoneally 30 minutes before training; FIG. 1-3
Method: Nootropic action (enhancement of memory disturbed by Scopolamine) of compounds of the general formula 1 in the test “Passive Avoidance of mice in the Shuttle Chamber”. A shuttle chamber (Ugo Basile, Italy) consisted of two sections was used. […] The sections were connected through a hole which could be overlapped by vertical door. The floor of the dark section was made of transverse metal bars on which DC current impulses could be fed. Experiments were carried out in aged male mice of BALB/c line weighing 20-25 grams.
On the first day of the experiment 30 minutes before training mice were injected intraperitoneally with physiological solution, Scopolamine (0.3 mg/kg), or Scopolamine in combination with compound 1.5(1). Each group consisted of 8 animals at least. The animals were placed in the light section, and latent period of the first entry into the dark chamber was registered. Then the vertical door was closed and the animal was punished by 0.6 mA DC current for 3 seconds. After that the animal was taken back to its home cage. In 22-24 hours the same animal was placed again in the light section of the shuttle chamber and latent period of its first entry into the dark section, the total time of its stay in the light section and the number of entries into dark section were registered. Each monitoring lasted for 5 minutes. […]

male mice of BALB/c line [3] = experiment: Tail suspension test; conditions: after 4 days administration in doses of 0.1 mg/kg; 3 minutes; FIG. 13
Method: Antidepressant action of compounds of the general formula 1 in tail suspension test. Experiments were carried out in aged male mice of BALB/c line weighing 20-24 grams. In the test mice were suspended by tail with scotch tape on holder over horizontal surface at a height of about 40 cm, and for 3 minutes the total duration of complete immobility episodes which is considered to be a measure of depressively-like state was registered. Automated computerized detection of motion with video system and Any-maze program were used in test.

Mice of SHK line = experiment: Prepulse inhibition of the startle response in mice (Apomorphine model); conditions: 1 mg/kg, 60 minutes before the test; FIG. 11
Method: Antipsychotic activity of compounds of the general formula 1 in “Prepulse inhibition of the startle response in mice” test. Mice of SHK line weighing about 24-30 g were used in the test. Experiments were carried out during light period of animal's diurnal. Apomorphine hydrochloride and Haloperidol were received from Sigma Chemicals Company, (USA). Apomorphine hydrochloride was dissolved in 0.1% solution of ascorbic acid prepared with sterilized water; it was introduced subcutaneously 15 minutes before the test. Haloperidol was dissolved in sterilized water using emulsifier Twin 80, it was introduced intraperitoneally 60 minutes before the test. Compound 1.5(1) was dissolved in sterilized water, it was introduced subcutaneously 60 minutes before the test. Injection volume was 10 ml/kg. Solution of ascorbic acid prepared with sterilized water and Twin 80 were injected to control group of animals.
The test instrument consisted of a chamber made of transparent plexiglass (manufacturer—Columbia Instruments Company, USA) and placed on a platform; the latter was lodged inside the sound insulating chamber. High frequency sound column transmitting acoustic stimulus was located 2 cm away from the platform. […] Level of background noise made up 65 dB. Each animal received 4 stimuli of single testing (pulse) stimulus of 50 ms duration and 105 dB or prepulsory stimulus (pre-pulse) of 20 ms duration and 85 dB, after which in 30 ms pulse stimulus of 50 ms duration and 105 dB followed. Time interval between repeated pulse or prepulse in combination with pulse stimuli made up 10 s. Inhibition of the startle in reply to prepulse-plus-pulse stimulus was calculated in percentage towards amplitude of startle in response to isolated pulse stimulus. Administration of Apomorphine, which is used in experiments on animals for modelling of psychoto-like conditions, caused reduction of prepulse inhibition of startle, which reflected the lowering of CNS ability to filter sensory stimulus. The experiment was also carried out using compounds 1.1(9) and 1.8(7).

male mice of BALB/c line [4] = experiment: Mice Behavior in the Elevated Plus Maze; conditions: 5 minutes, FIG. 7-9
Method: Anxiolytic (tranquilizing) action of compounds of the general formula 1 in “Mice Behavior in the Elevated Plus Maze” test. Compounds 1.1(9), 1.5 (1) and 1.8(7) were employed in the experiments. Arm length was 30 cm, width—5 cm, wall hight—15 cm. Two opposite arms were closed from both sides and end surfaces with transparent plexiglass; two others—lighted and opened. A mouse was placed in the maze center, and over a period of 5 minutes the number of opened and closed arms entries and duration of opened and closed arm entries were registered. […] Being in normal state animals avoid opened arms (index of preference makes 0.2-0.3). Compounds with anxiolytic activity (tranquilizing activity) run this value up to 0.5-0.6 and more, and also decrease the number of defecations without changing overall physical activity (general number of arm entries).

male mice of BALB/c line [5] = experiment: Passive Avoidance of mice in the Shuttle Chamber, memory disturbed by MK-801; conditions: MK-801 0.1 mg/kg, intraperitoneally 30 min before training; FIG. 4-6
Male rats of Vistar line = experiment: Appetite Control Test; conditions: dose 10 mg/kg intraperitoneally 60 minutes before the test; 16 h food deprivation; FIG. 10
Method: Male rats of Vistar line weighing 230-360 g were housed in standard home cages with water and food available with the exception of short periods of food deprivation (16 hs) just before the Appetite test. The Appetite test was carried out in individual cages with overhead cover made of wire in the niches of which a portion of food granules was inserted. Mass of the granules was examined every 30 minutes for 3 h. On the basis of these measurements food consumption was estimated and stated in grams of food per kilogram of body mass. Placebo and compound 1.5(1) (dose 10 mg/kg) were injected intraperitoneally 60 minutes before the test. Each experimental group of animals consisted of 10 rats. Compound was dissolved in sterilized water. The injection volume was 10 ml/kg. Intact animals which were not undergone food deprivation, and animals after food deprivation, but injected with sterilized water, were used as control. Intact animals which were not undergone food deprivation and injected with sterilized water, were used as control. The experiment was carried out also using compounds 1.1(9) and 1.8(7).

| SMILES | Antidepressant action: duration of immobile hanging in water (behavioural despaire) (male mice of BALB/c line [1]) | Nootropic action (enhancement of memory disturbed by Scopolamine) (male mice of BALB/c line [2]) | Antidepressant action: total duration of complete immobility (male mice of BALB/c line [3]) | Antipsychotic activity: prepulse inhibition of startle disturbed by Apomorphine (Mice of SHK line) | Anxiolytic (tranquilizing) action (male mice of BALB/c line [4]) | Nootropic action (enhancement of memory disturbed by MK-801) (male mice of BALB/c line [5]) | Appetite (food consumption) after food deprivation (Male rats of Vistar line) |
| --- | --- | --- | --- | --- | --- | --- | --- |
| CNc1ccc(N2CCNCC2)cc1S(=O)(=O)c1cccc(F)c1 [1.1(9), methyl-[4-piperazin-1-yl-6-(3-fluorophenylsulfonyl)phenyl]-amine] | diminish the given parameter | produce nootropic action more effectively | diminish the duration of complete immobility of mice | prevented disturbance of prepulse inhibition of startle caused by Apomorphine | anxiolytic (tranquilizing) activity comparable to the activity of Buspirone and Lorazepam | produce nootropic action | capable to prevent appetite rising in rats |
| CNc1c(S(=O)(=O)c2ccccc2)cnc2c(N3CCNCC3)cccc12 [1.5 (1), methyl-(8-piperazin-1-yl-3-phenylsulfonylquinolin-4-yl)-amine] | diminish the given parameter | produce nootropic action more effectively | diminish the duration of complete immobility of mice | prevented disturbance of prepulse inhibition of startle caused by Apomorphine | anxiolytic (tranquilizing) activity comparable to the activity of Buspirone and Lorazepam | produce nootropic action | capable to prevent appetite rising in rats |
| O=C(CCCN1CCC(O)(c2ccc(Cl)cc2)CC1)c1ccc(F)cc1 [Haloperidol, reference compound] |  |  |  | prevented disturbance of prepulse inhibition of startle caused by Apomorphine |  |  |  |
